Where a SMILES comes first, the peptide text is derived from it.

One series relates to N-His Ich-1. Kind of series: 100 mM sodium acetate (pH 6.2), 20% (v/v) glycerol, 5 mM dithiothreitol, 0.5 mM EDTA and approximately 15 μg N-His Ich-1. Conditions: Human, 30° C., up to 60 minutes.
Take Ac-HSLDNKDGPVW-NH2: the not cleaved was 0% cleavage after 60 minute reaction.
On the same count and under the same terms, then Ac-YSDQMDGFHDSW-NH2, with 0% cleavage after 60 minute reaction; and Ac-WGDEVDGVDEVW-NH2, with 0% cleavage after 60 minute reaction.
Ac-RGVDQQDGKNHW-NH2: the cleaved bond entry was “Asp7-Gly”.
For Ac-GEDMQDNSGTYW-NH2, the not cleaved is given as 1% cleavage after 60 minute reaction.
Same read-out and setting: the result for Ac-NEAYVHDAPVRSLY-NH2 reads 0% cleavage after 60 minute reaction.

Another series has as its target T1, N-His Ich-1 (Homo sapiens, UniProt P42575).
T1 construct: contains Ich-1 amino acid residues 167-435, with an initiator and polyhistidine tag fused to the amino terminus; initiator (Met) + polyhistidine tag (N); made in house
T1 sequence (P42575 184-333): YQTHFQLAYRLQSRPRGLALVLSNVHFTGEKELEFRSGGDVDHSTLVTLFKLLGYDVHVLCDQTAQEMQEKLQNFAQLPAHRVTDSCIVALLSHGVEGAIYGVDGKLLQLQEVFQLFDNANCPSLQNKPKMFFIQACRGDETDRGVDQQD
T1 sequence (P42575 334-452): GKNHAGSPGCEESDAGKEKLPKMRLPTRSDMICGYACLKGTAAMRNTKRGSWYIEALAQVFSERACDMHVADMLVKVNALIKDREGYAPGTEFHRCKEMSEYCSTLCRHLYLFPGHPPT
Kind of series: In vitro proteolysis assay: cleavage of candidate peptide substrates by N-His Ich-1 (reverse phase HPLC). Conditions: 10 μM peptide, 30° C., pH 6.2, 60 minute reaction. In kind it is biochemical. The text has this:
To identify peptide substrates for Ich-1, candidate peptides were used in in vitro proteolysis assays with recombinant Ich-1 protein. Human Ich-1 enzyme (the nucleotide and amino acid sequences for which are disclosed in Wang, L., et al. (1994) Cell 78:739-750) was expressed recombinantly with an N-terminal polyhistidine tag by methods described in Kamens, J., et al. (1995) J. Biol. Chem. 270:15250-15256. The resulting enzyme, called N-His Ich-1, contains Ich-1 amino acid residues 167-435, with an initiator and polyhistidine tag fused to the amino terminus. The recombinant N-His Ich-1 protein was purified by metal chelating column chromatography as described in Porath, J. (1992) Protein Expression and Purification 3:263-281.
Candidate peptide substrates were synthesized by standard solid phase methods and were purified to ≥95% by reverse-phase chromatography. Peptide identities were confirmed by mass spectrometry. Each peptide was acetylated at the amino-terminus and amidated at the carboxy-terminus. The amino acid sequence of each peptide included at least one Trp or Tyr residue. Stock solutions of each peptide were prepared in dimethylsulfoxide (DMSO) at approximately 10 mM. The precise concentration of each stock solution was determined in duplicate as described in Edelhoch, H. (1967) Biochemistry 6:1948-1954. Dilutions of each stock solution to 500 μM were prepared and stored at -20° C. prior to use in enzyme assays.
To determine the substrate specificity of Ich-1, Vmax /Km values for various candidate peptide substrates were compared using experimental procedures modeled after those of Howard, A., et al. (1991) J. Immunol. 147:2964-2969. Enzyme reaction mixtures (810 μL) were prepared containing: 100 mM sodium acetate (pH 6.2), 20% (v/v) glycerol, 5 mM dithiothreitol, 0.5 mM EDTA and approximately 15 μg N-His Ich-1. These mixtures were capped and preincubated for 30 minutes at 30° C. Candidate peptide substrates were added from 500 μM DMSO stocks to give final concentrations of 10 μM peptide and 2% (v/v) DMSO. The reaction mixtures were then capped and incubation was continued at 30° C. At 10 minute intervals for 60 minutes beginning at t=0, aliquots of 110 μL were removed from each reaction mixture and added to vials containing 11 μL of a solution of 3 M HCl in water to stop the enzyme reaction. Samples were stored at room temperature prior to analysis.
Samples were analyzed by reverse phase HPLC using a 250×4.6 mm C18 reverse phase column (Vydak, Hesperia, Calif.) and a linear gradient of MeCN--H2 O with 0.1% (v/v) TFA. The area under the substrate peaks (arbitrary units) was plotted vs. time of reaction for each substrate and fit into an equation of the form: [formula]
wherein S0 is substrate peak area at time=0, St is substrate peak area at time=t, e is a constant approximately equal to 2.718, k is the first order rate constant formally equal to Vmax /Km and t is time. […] Alternatively, results can be expressed as percent substrate cleavage after a fixed time of reaction.
Take `CC(=O)N[C@@H](Cc1c[nH]cn1)C(=O)N[C@@H](CO)C(=O)N[C@@H](CC(C)C)C(=O)N[C@@H](CC(=O)O)C(=O)N[C@@H](CC(N)=O)C(=O)N[C@@H](CCCCN)C(=O)N[C@@H](CC(=O)O)C(=O)NCC(=O)N1CCC[C@H]1C(=O)N[C@H](C(=O)N[C@@H](Cc1c[nH]c2ccccc12)C(N)=O)C(C)C` [Peptide 4, acetyl-HSLDNKDGPVW-amide] (Ac-HSLDNKDGPVW-NH2): the “% Cleavage after 60 minute reaction” value came to 0%.
Turning to `CSCC[C@H](NC(=O)[C@H](CCC(N)=O)NC(=O)[C@H](CC(=O)O)NC(=O)[C@H](CO)NC(=O)[C@H](Cc1ccc(O)cc1)NC(C)=O)C(=O)N[C@@H](CC(=O)O)C(=O)NCC(=O)N[C@@H](Cc1ccccc1)C(=O)N[C@@H](Cc1c[nH]cn1)C(=O)N[C@@H](CC(=O)O)C(=O)N[C@@H](CO)C(=O)N[C@@H](Cc1c[nH]c2ccccc12)C(N)=O` [Peptide 6, acetyl-YSDQMDGFHDSW-amide] (Ac-YSDQMDGFHDSW-NH2), the “% Cleavage after 60 minute reaction” value is recorded as 0%.
`CC(=O)N[C@@H](CC(N)=O)C(=O)N[C@@H](CCC(=O)O)C(=O)N[C@@H](C)C(=O)N[C@@H](Cc1ccc(O)cc1)C(=O)N[C@H](C(=O)N[C@@H](Cc1c[nH]cn1)C(=O)N[C@@H](CC(=O)O)C(=O)N[C@@H](C)C(=O)N1CCC[C@H]1C(=O)N[C@H](C(=O)N[C@@H](CCCNC(=N)N)C(=O)N[C@@H](CO)C(=O)N[C@@H](CC(C)C)C(=O)N[C@@H](Cc1ccc(O)cc1)C(N)=O)C(C)C)C(C)C` [Peptide 2, acetyl-NEAYVHDAPVRSLY-amide] (Ac-NEAYVHDAPVRSLY-NH2): the “% Cleavage after 60 minute reaction” value is on record as 0%.
With `CC(=O)N[C@@H](CCCNC(=N)N)C(=O)NCC(=O)N[C@H](C(=O)N[C@@H](CC(=O)O)C(=O)N[C@@H](CCC(N)=O)C(=O)N[C@@H](CCC(N)=O)C(=O)N[C@@H](CC(=O)O)C(=O)NCC(=O)N[C@@H](CCCCN)C(=O)N[C@@H](CC(N)=O)C(=O)N[C@@H](Cc1c[nH]cn1)C(=O)N[C@@H](Cc1c[nH]c2ccccc12)C(N)=O)C(C)C` [Peptide 1, acetyl-RGVDQQDGKNHW-amide] (Ac-RGVDQQDGKNHW-NH2), the “% Cleavage after 60 minute reaction” value came to 80%.
On the same count and under the same terms, the result for `CSCC[C@H](NC(=O)[C@H](CC(=O)O)NC(=O)[C@H](CCC(=O)O)NC(=O)CNC(C)=O)C(=O)N[C@@H](CCC(N)=O)C(=O)N[C@@H](CC(=O)O)C(=O)N[C@@H](CC(N)=O)C(=O)N[C@@H](CO)C(=O)NCC(=O)N[C@H](C(=O)N[C@@H](Cc1ccc(O)cc1)C(=O)N[C@@H](Cc1c[nH]c2ccccc12)C(N)=O)[C@@H](C)O` [Peptide 5, acetyl-GEDMQDNSGTYW-amide] (Ac-GEDMQDNSGTYW-NH2) reads 1%; that for `CC(=O)N[C@@H](Cc1c[nH]c2ccccc12)C(=O)NCC(=O)N[C@@H](CC(=O)O)C(=O)N[C@@H](CCC(=O)O)C(=O)N[C@H](C(=O)N[C@@H](CC(=O)O)C(=O)NCC(=O)N[C@H](C(=O)N[C@@H](CC(=O)O)C(=O)N[C@@H](CCC(=O)O)C(=O)N[C@H](C(=O)N[C@@H](Cc1c[nH]c2ccccc12)C(N)=O)C(C)C)C(C)C)C(C)C` [Peptide 3, acetyl-WGDEVDGVDEVW-amide] (Ac-WGDEVDGVDEVW-NH2), 0%.
For `CC[C@H](C)[C@H](NC(=O)CNC(=O)[C@H](CS)NC(C)=O)C(=O)N[C@@H](CCC(=O)O)C(=O)N[C@H](C(=O)N[C@@H](CC(=O)O)C(=O)N[C@@H](CO)C(=O)NCC(=O)N[C@H](C(=O)N[C@@H](CC(=O)O)C(=O)N[C@@H](CC(=O)O)C(=O)N[C@@H](Cc1c[nH]c2ccccc12)C(N)=O)C(C)C)[C@@H](C)O` [Peptide 7, acetyl-CGIETDSGVDDW-amide] (Ac-CGIETDSGVDDW-NH2), the “% Cleavage after 60 minute reaction” value came to 8%.

The series is the same for the next values; noted with them: Tables 1-3.
As to `CC(=O)N[C@H](C(=O)N[C@@H](CC(=O)O)C(=O)N[C@@H](CCC(N)=O)C(=O)N[C@@H](CCC(N)=O)C(=O)N[C@@H](CCC(=O)O)C(=O)NCC(=O)N[C@@H](Cc1c[nH]c2ccccc12)C(N)=O)C(C)C` [Peptide 42, acetyl-VDQQEGW-amide] (Ac-VDQQEGW-NH2), the “cleavage by N-His Ich-1 (in words)” value is given as “modest cleavage”.
Still for that read-out and setting: the result for `CC(=O)N[C@H](C(=O)N[C@@H](CC(N)=O)C(=O)N[C@@H](CCC(N)=O)C(=O)N[C@@H](CCC(N)=O)C(=O)N[C@@H](CC(=O)O)C(=O)NCC(=O)N[C@@H](Cc1c[nH]c2ccccc12)C(N)=O)C(C)C` [Peptide 25, acetyl-VNQQDGW-amide] (Ac-VNQQDGW-NH2) reads “not tolerated”.
The same measure, in the same setting: then `CC(=O)N[C@H](C(=O)N[C@@H](CC(=O)O)C(=O)N[C@@H](CCC(N)=O)C(=O)N[C@@H](CCC(=O)O)C(=O)N[C@@H](CC(=O)O)C(=O)NCC(=O)N[C@@H](Cc1c[nH]c2ccccc12)C(N)=O)C(C)C` [Peptide 41, acetyl-VDQEDGW-amide] (Ac-VDQEDGW-NH2), with “poorly cleaved compared to the most preferred peptides”.
On the same count and under the same terms, then `CC(=O)N[C@H](C(=O)N[C@@H](C)C(=O)N[C@@H](CCC(N)=O)C(=O)N[C@@H](CCC(N)=O)C(=O)N[C@@H](CC(=O)O)C(=O)NCC(=O)N[C@@H](Cc1c[nH]c2ccccc12)C(N)=O)C(C)C` [Peptide 24, acetyl-VAQQDGW-amide] (Ac-VAQQDGW-NH2), with “relatively poor cleavage”; and `CC(=O)N[C@@H](CCCNC(=N)N)C(=O)NCC(=O)N[C@H](C(=O)N[C@@H](CC(=O)O)C(=O)N[C@@H](CCC(N)=O)C(=O)N[C@@H](CCC(N)=O)C(=O)N[C@@H](CC(=O)O)C(=O)NCC(=O)N[C@@H](CCCCN)C(=O)N[C@@H](CC(N)=O)C(=O)N[C@@H](Cc1c[nH]cn1)C(=O)N[C@@H](Cc1c[nH]c2ccccc12)C(N)=O)C(C)C` [Peptide 1, acetyl-RGVDQQDGKNHW-amide] (Ac-RGVDQQDGKNHW-NH2), with “cleaved at a rate significantly greater than the other tested peptides”; and `CC(=O)N[C@@H](CC(=O)O)C(=O)N[C@@H](CC(=O)O)C(=O)N[C@@H](CCC(N)=O)C(=O)N[C@@H](CCC(N)=O)C(=O)N[C@@H](CC(=O)O)C(=O)NCC(=O)N[C@@H](Cc1c[nH]c2ccccc12)C(N)=O` [Peptide 21, acetyl-DDQQDGW-amide] (Ac-DDQQDGW-NH2), with “weak cleavage”.
On to `CC(=O)N[C@H](C(=O)N[C@@H](CCC(=O)O)C(=O)N[C@@H](CCC(N)=O)C(=O)N[C@@H](CCC(N)=O)C(=O)N[C@@H](CC(=O)O)C(=O)NCC(=O)N[C@@H](Cc1c[nH]c2ccccc12)C(N)=O)C(C)C` [Peptide 23, acetyl-VEQQDGW-amide] (Ac-VEQQDGW-NH2), for which the “cleavage by N-His Ich-1 (in words)” value is “not tolerated”.
On the same count and under the same terms, the result for `CC(=O)N[C@H](C(=O)N[C@@H](CO)C(=O)N[C@@H](CCC(N)=O)C(=O)N[C@@H](CCC(N)=O)C(=O)N[C@@H](CC(=O)O)C(=O)NCC(=O)N[C@@H](Cc1c[nH]c2ccccc12)C(N)=O)C(C)C` [Peptide 22, acetyl-VSQQDGW-amide] (Ac-VSQQDGW-NH2) reads “tolerated, but is cleaved at a substantially lower efficiency than P4 Asp”; that for `CC(=O)N[C@H](C(=O)N[C@@H](CC(=O)O)C(=O)N[C@@H](CCC(N)=O)C(=O)N[C@@H](Cc1ccc(O)cc1)C(=O)N[C@@H](CC(=O)O)C(=O)NCC(=O)N[C@@H](Cc1c[nH]c2ccccc12)C(N)=O)C(C)C` [Peptide 40, acetyl-VDQYDGW-amide] (Ac-VDQYDGW-NH2), “poorly cleaved compared to the most preferred peptides”.

The values above are taken from patent US6288037A (BASF Aktiengesellschaft, priority 1996, dated 2001).
